Reference: patent US5468472A, “Topical process for lightening the skin or treating pigmental blemishes using a composition containing 4-thioresorcin derivatives” (L'Oreal, priority 1993, dated 1995)

Test system: fungal tyrosinase
Assay: in vitro inhibition test of the activity of tyrosinase (dopachrome formation, 475 nm)
Type: biochemical
Conditions: inhibitor at 50 mol % with respect to tyrosine; lowering of maximum dopachrome (OD 475 nm at plateau) vs no inhibitor; pH 6.5, 25° C.
Source text: According to this test, the amount of dopachrome formed during the chain of reactions of conversion of tyrosine to melanins is monitored by visible spectrometry at 475 nm.
The concentration of dopachrome formed with time in the presence and in the absence of the inhibitor thus measured.
The inhibitor concentrations are set at 50 mol % with respect to the concentration of tyrosine in the reaction medium.
The inhibition effect is expressed by the lowering in the maximum amount of dopachrome formed (optical density value at 475 nm read at the plateau of the curve) with respect to the amount obtained in the absence of inhibitor.
A - 0.1M Phosphate buffer, pH=6.5 (1% Tween 20)
B - 2.10^-3 M Mother solution of L-tyrosine in A
C - 10^-4 M Mother solution of L-dopa in A
D - Mother solution of fungal tyrosinase in A containing 2,400 units/ml
E - 10^-2 M Mother solution of the inhibitor in A (Solutions C and D are to be prepared on the day)
reference cell: 3 ml of A
homogenize and equilibrate at 25° C.
mix rapidly and observe the kinetics by measuring the absorbence at 475 nm as a function of time.

Row | Structure (SMILES) | % change in maximum dopachrome vs no inhibitor
1 | CSc1ccc(O)cc1O | -90%
2 | CCSc1ccc(O)cc1O | -88%
3 | Oc1ccc(SCc2ccccc2)c(O)c1 | -95%
4 | Oc1ccc(SCCSc2ccc(O)cc2O)c(O)c1 | -79%
5 | CCCSc1ccc(O)cc1O | -76%
6 | CC(C)Sc1ccc(O)cc1O | -84%
7 | CCOC(=O)CSc1ccc(O)cc1O | -94%
8 | Oc1ccc(SCCCN2CCOCC2)c(O)c1 | -65%
9 | Oc1ccc(O)cc1 [hydroquinone, reference compound] | -33%
